Measurements reported in PMC4267740, “Unprecedented Therapeutic Potential with a Combination of A2A/NR2B Receptor Antagonists as Observed in the 6-OHDA Lesioned Rat Model of Parkinson's Disease” (PLoS ONE, 2014).
pIC50: −log10 of the molar value. Values joined by “and” are separate entries in the source; they are usually repeats but may differ in a detail not shown here. Identical values can stand only once. “Also recorded” adds a separate entry of the source. Like-named read-outs stand apart in the source and are kept apart here.

How the values were obtained:
[1] = Plasma and brain exposure in satellite lesioned rats; assay type: in vivo, rat; conditions: 90 min after dosing, mean ± SD
Method: Satellite lesioned rats (400–450 g) were anesthetized with isoflurane and sacrificed by exsanguination. Blood samples were collected in EDTA centrifuged 10 min at 3000 rpm at 4°C to obtain plasma and stored at −20°C prior the analysis. Brains were perfused by saline collected and immediately stored at −20°C prior the analysis. Brain samples were added to 4 volumes of water before being homogenized. A structural analog compound was added as internal standard to the samples and proteins were crashed using 8 volumes of acetonitrile. Compounds were analyzed on an API5000 mass spectrometer (ABSciex, Framingham, MA, USA.) equipped with a turbo ion spray source and interfaced with an Agilent 1290 Infinity LC system (Agilent Technologies, Waldbroon, Germany). The mass spectrometer was operated in the positive ionization mode with Multiple Reactions Monitoring used to quantify the various analytes (407 to 292 for Tozadenant; 398 to 109 for Radiprodil, 346 to 105 for Sch-58261 and 342 to 100 for Co-101244). A Waters HSS T3 column (2.1×30 mm, 1.8 µm) was used. The mobile phase consisted of 100% water with 0.1% formic acid (phase A) and 100% acetonitrile with 0.1% formic acid (phase B). The flow rate was 1 mL/min. A linear gradient was performed from 0 to 1 min (95 to 30% phase A), a jump to 90% B in 0.01 min, a hold period of 1.29 min at 90% phase B followed by equilibration at the initial condition was applied before the following injection.
(§1) Before undertaking the study, each A2A and NR2B antagonist was tested individually. The doses were selected on the basis of preliminary dose-response curves performed separately for each drug and submaximal dose (i.e. response observed is not at its maximal level) of each drug was selected for the combination studies. The two drugs were administered separately via an intraperitoneal (ip) injection with a 2-minute interval between the two drugs. Five minutes after the second injection, animals were placed in the testing cage for behavioural recording. Due to formulation and exposure issues, Tozadenant and Radiprodil had to be administered orally and therefore recording was started 60 minutes post dosing at this corresponds to maximum plasma concentrations. Eight drug-naïve animals were used for each of the four procedures; 32 in total for each combination. All behavioral experiments were conducted between 8.00 AM and 2.00 PM at the latest. Preliminary pharmacokinetic assays investigated the plasma and brain disposition of selected drugs administered alone or in combination (ie. Tozadenant/Radiprodil, and Sch-58261/Co-101244; 3 animals per group). Tozadenant and Radiprodil were measured in samples obtained 60 minutes after single oral administration at 30 mg/kg. Sch-58261 and Co-101244 were measured in samples collected 90 min after single intraperitoneal administration at 3 mg/kg.

[2] = system: unilateral 6-OHDA-lesioned rats; experiment: Distance traveled in actometers, monotherapy (without L-Dopa); assay type: in vivo, rat; conditions: Co-101244 1 mg/kg ip
Method: (§2) To protect norepinephrinergic neurons, animals were administered imipramine HCl (Sigma) 15 minutes before surgery. They were subsequently anesthetized with ketamine (Ceva, 75 mg/kg) and xylazine (Bayer, 10 mg/kg) and placed in stereotaxic frame (David Kopf Instrument). 6-OHDA was injected into the right ascending medial forebrain bundle at the following coordinates (in mm) relative to bregma and surface of the dura, AP = −3.5, ML = −1.5, DV = −8.7. Each rat received one injection of 6-OHDA (4 µg/µl) over a period of 5 minutes (0.5 µl/min) for a total of 10 µg per rat. Animals were monitored for 3 weeks to ensure full recovery and habituation to the environment and experimenters.
(§3) On day 21 post surgery, all rats were challenged with a small dose of subcutaneously administered apomorphine (Sigma, 0.05 mg/kg). Rats showing more than 90 contralateral rotations (360°) over a 45-minute recording period were included in the study. […] For each experiment, rats were allocated to the different experimental groups in order to get the same mean level of basal activity measured at the apomorphine challenge amongst the different experimental groups.
(§4) Drug-naïve separate rats were tested individually in clear acrylic chambers (LE8811 IR, Panlab). Locomotion was detected and measured by 16 infrared light-beam sensors located on each side of the enclosure at a height of 3 cm. Sensors were spaced such that the light beams formed a matrix of 15×15 squares over the surface. Activity counts were recorded on a computer and Acti-Track software (Actitrack, Panlab) was used to convert raw data into “distance traveled” and “rearing counts” for analysis as relevant dependent variables.
(§5) Six different combinations of A2A/NR2B antagonists were tested without L-Dopa. For each combination, there were four different procedures: vehicle only; A2A antagonist followed by vehicle; vehicle followed by the NR2B antagonist and A2A antagonist followed by the NR2B antagonist. The drugs, doses and combinations are described in Table 3. After drug administration, rats were placed in actometers (open-field) for monitoring the general level of motor activity (distance traveled and rearing counts).
as §1
(§6) The effects of A2A and NR2B antagonists on the level of motor activity (i.e. distance traveled and rearing counts) were assessed with three-way mixed ANOVA, combining the A2A receptor antagonist (2 levels, vehicle and the A2A drug) and the NR2B antagonist (2 levels, vehicle and the NR2B drug) as between-group factors with the time as within-subjects factor (6 or 9 levels). […]

[3] = system: unilateral 6-OHDA-lesioned rats; experiment: Rearing counts in actometers, monotherapy (without L-Dopa); assay type: in vivo, rat; conditions: Co-101244 1 mg/kg ip
Method: as §2, §3, §4, §5, §1, §6

[4] = system: unilateral 6-OHDA-lesioned rats; experiment: L-Dopa-induced contralateral rotations in rotometers, add-on therapy; assay type: in vivo, rat; conditions: add-on to L-Dopa 25 mg/kg ip, Sch-58261 0.3 mg/kg ip, Co-101244 1 mg/kg ip
Method: as §2, §3
The rats tested one week earlier for general activity (actometers) were once again placed in clear acrylic individual chambers (50×45 cm) with the same treatment (drug and dose) than that previously received plus L-Dopa. Eight chambers were placed on a level, clear glass bottom, held by a robust frame, and were subdivided into four individual test cages of 25×22 cm. A removable acrylic plate served as a lid.
Rotational behaviour was recorded using a home-made computerized system. Rats were fixed in a harness and linked to mechanical sensors connected directly to a computer. Each 360° clock-wise or counter clock-wise turn was automatically recorded for up to 120 minutes at the maximum. Throughout the experiments, rats were allocated to individual test cages.
Four different combinations were administered as add-on treatment to a low active dose of L-Dopa (25 mg/kg, ip) without any dopa decarboxylase inhibitor to avoid any additional pharmacokinetic interaction. The doses of the compounds were selected on the basis of preliminary dose-response curves performed separately for each drug. To avoid ceiling effect with L-Dopa, only submaximal doses of each drug were selected for testing (as it was done previously for monotherapy). Eight L-Dopa naïve animals were tested for each of the four pharmacological condition: vehicle and L-Dopa (25 mg/kg); A2A antagonist followed by vehicle and L-Dopa; vehicle followed by NR2B antagonist and L-Dopa; A2A antagonist followed by NR2B and L-Dopa. Due to the dominance of the L-Dopa-effect on the lesioned striatum, the unilateral 6-OHDA-lesioned rats rotated after the drugs administration and behavioral activity was recorded in rotometers (i.e. level of contralateral rotations).
All drugs were administered i.p. 25 minutes before behavioural recording, except for the Tozadenant and Radiprodil combination which was administered orally 60 minutes before behavioural recording. As Radiprodil was administered orally, L-Dopa was given 45 minutes after the Radiprodil injection whereas for the other combinations L-Dopa was given 15 minutes after the NR2B drug. The drugs, the doses and the combinations given in co-administration to L-Dopa are described in Table 4 .
The impact of treatment with A2A or NR2B receptor antagonists, given alone or in combination, on the effect of L-Dopa on contralateral rotations was also analysed with a three-way mixed ANOVA. The ANOVA included the A2A and the NR2B receptor antagonists (both, 2 levels, vehicle and the drug) as between-group factors combined with time (12 levels) as within-subjects factor. […] The ability of the combination to increase and prolong the activity of L-Dopa was also explored. Consequently, drug effects were analyzed for every 10-min time interval. […]

NR2B [5] = conditions: In vitro Binding; cited from earlier work
NR2B [6] = system: NR2B; parameters: method as in PMID 10454475, PMID 10425109; conditions: TEVC recording; cited from earlier work

For `Cc1ccc(CC2(O)CCN(CCOc3ccc(O)cc3)CC2)cc1` [Co-101244], the Plasma concentration ([1]; administered alone, ip 3 mg/kg, 3 animals (Co-101244 n = 2)) was 54.7 (n = 2) ng/mL, the Plasma concentration ([1]; administered in combination Sch-58261+Co-101244, both ip 3 mg/kg, 3 animals) was 55.4 ± 8.32 ng/mL and the “Distance traveled, drugs alone vs vehicle, p (Newman-Keuls)” value ([2]; Istradefylline 0.3 mg/kg ip) was “not all drugs when administered alone improved distance traveled; also recorded: Not significant”. The “Distance traveled, drugs main effect, p (three-way mixed ANOVA)” value ([2]; Istradefylline 0.3 mg/kg ip) was “p<0.05”, the “Distance traveled, drugs × time effect, p (three-way mixed ANOVA)” value ([2]; Istradefylline 0.3 mg/kg ip) was “p<0.001” and the “Distance traveled, drugs main effect, p (three-way mixed ANOVA)” value ([2]; Sch-58261 1 mg/kg ip) was “p<0.001”. For the same molecule, the “Distance traveled, drugs × time effect, p (three-way mixed ANOVA)” value ([2]; Sch-58261 1 mg/kg ip) was “p<0.001”, the “Rearing counts, drugs alone vs vehicle, p (Newman-Keuls)” value ([3]; Istradefylline 0.3 mg/kg ip) was “Co-101244, not significant” and the “Rearing counts, drugs main effect, p (three-way mixed ANOVA)” value ([3]; Istradefylline 0.3 mg/kg ip) was “Not significant”. For the same molecule, the “Rearing counts, drugs × time effect, p (three-way mixed ANOVA)” value ([3]; Istradefylline 0.3 mg/kg ip) was “p<0.01”, the “Rearing counts, drugs main effect, p (three-way mixed ANOVA)” value ([3]; Sch-58261 1 mg/kg ip) was “p<0.001” and the “Rearing counts, drugs × time effect, p (three-way mixed ANOVA)” value ([3]; Sch-58261 1 mg/kg ip) was “p<0.001”. For the same molecule, the “Contralateral rotations, drugs main effect, p (three-way mixed ANOVA)” value [4] was “Not significant”, the “Contralateral rotations, drugs × time effect, p (three-way mixed ANOVA)” value [4] was “p<0.001” and the pIC50 (NR2B [5]) was 8.40. The pIC50 (NR2B [6]) was 7.59 and 7.37.
